Experiment [1] in a line: Abdominal contrast enhanced CT in minipig, arterial phase, SNR of ROI. It is filed as in vivo. The settings on record: for ASiR 60% [SNR] / Veo [SNR]: 80 kVp. As to the method:
(§1) An anaesthetized minipig (abdominal maximum and minimum diameters 36 cm and 20 cm, respectively) was imaged 3 times (imaging protocols 1, 2 and 3, Tables 3 and 4) on a Discovery CT 750 HD. Visipaque (60 mL) was injected at a rate of 2 mL/s into a jugular vein, followed by a 20 mL saline flush at the same injection rate. There was at least a 2 day washout period between each scanning session.
(§2) Protocol 1 with a Visipaque concentration of 320 mg l/mL and 120 kVp tube voltage represents current standard of care (SoC) imaging for humans. Automated tube current modulation (≦500 mA) was used with a noise index level of 30 and a tube rotation time of 0.7 s. Post-contrast CT images were acquired during the arterial phase, the portal venous phase, the venous phase and the late phase. Image reconstruction was done by (1) FBP, (2) ASiR 60% and (3) Veo. Pixel size was 0.703 mm×0.703 mm×0.625 mm.
(§3) Iodine contrast enhancement was assessed by measuring the signal-to-noise ratio (SNR) of circular regions of interest (ROI), see Tables 3 and 4. The SNR is calculated as ratio of mean ROI intensity in HU and standard deviation (SD). ROIs were placed in aorta and muscle (quadratus lumborum) in arterial phase images and in liver in venous phase images.

A short description of experiment [2]: Abdominal contrast enhanced CT in minipig, venous phase, SNR of ROI. It is filed as in vivo. The settings on record: liver; for ASiR 60% [SNR] / Veo [SNR]: 80 kVp. As to the method:
as §1, §2, §3

Setting [3] is: protocol 1: Visipaque 320 mg I/ml, 120 kVp, CTDIvol 6.7 mGy.
[4] abbreviates: protocol 2: Visipaque 170 mg I/ml, CTDIvol 3.2 mGy.
The mark [5] stands for this setting: protocol 3: Visipaque 120 mg I/ml, CTDIvol 6.4 mGy.

Consider `CC(=O)N(CC(O)CN(C(C)=O)c1c(I)c(C(=O)NCC(O)CO)c(I)c(C(=O)NCC(O)CO)c1I)c1c(I)c(C(=O)NCC(O)CO)c(I)c(C(=O)NCC(O)CO)c1I` (stereo not shown) [Visipaque, iodixanol], for which the “FBP [SNR]” value in experiment [1] (setting [3]) is on record as 8.3; in experiment [2] (setting [3]) it was 4.3. For the same compound, the “ASiR 60% [SNR]” value in experiment [1] (setting [4]) is listed as 7.4; in experiment [1] (setting [5]), 8.5; in experiment [2] (setting [4]), 3.5; in experiment [2] (setting [5]), 4.7. In addition, the “Veo [SNR]” value is listed as 12.8 in experiment [1] (setting [4]), 14.2 in experiment [1] (setting [5]), 8.1 in experiment [2] (setting [4]) and 8.1 in experiment [2] (setting [5]).

For the origin of these results see patent US20130116554A1, “X-RAY IMAGING AT LOW CONTRAST AGENT CONCENTRATIONS AND/OR LOW DOSE RADIATION” (priority 2010, published 2013).
